Drawing on patent US8288381B2, “N-9 substituted purine compounds, compositions and methods of use” (Genentech, Inc., priority 2009, dated 2012), this text covers Ki, IC50 and EC50 for 13 molecules.

Experiment [1] concerns the target mTOR enzyme (mTOR(1360-2549)+GBL) (Homo sapiens, UniProt P42345). As to the kind of experiment: In vitro mTOR kinase assay (TR-FRET). It counts as biochemical. Particulars: Ki apparent, Morrison ATP-competitive tight binding equation; 8 uM ATP, 0.25 nM mTOR+GBL; read-out: activity level (Ki) in the mTOR kinase assay. The method, then:
The kinase activity of mTOR enzyme is assessed by incubating purified recombinant enzyme (mTOR(1360-2549)+GBL, prepared in-house) in a reaction mixture containing ATP, MnCl2, and a fluorescently labeled mTOR substrate, e.g., GFP-4E-BP1 (Invitrogen, product #PR8808A). The reaction is stopped by an addition of a Terbium-labeled phospho-specific antibody, e.g., Tb-labeled anti-p4E-BP1 T37/T46, (Invitrogen, product #PR8835A), EDTA, and TR-FRET buffer solution (Invitrogen, Product #PR3756B). Product formation is detected by way of time-resolved fluorescence resonance energy transfer (TR-FRET), which occurs when the phosphorylated substrate and labeled antibody are in close proximity due to phospho-specific binding. Enzymatic activity is measured as an increase in TR-FRET signal using a Perkin Elmer Envision plate reader. The assay is performed in a 384-well Proxiplate Plus (Perkin Elmer. Product #6008269) using the following protocol:
Compound activity is tested in 10 point dose curves starting at the highest final concentration of 10 uM. They are serially diluted in 100% DMSO prior to further dilution with assay buffer. The reaction mixture (8 uls) containing 0.25 nM mTOR+GBL enzyme, 400 nM GFP-4E-BP1, 8 uM ATP, 50 mM Hepes pH 7.5, 0.01% Tween 20, 10 mM MnCl2, 1 mM EGTA, 1 mM DTT, 1% DMSO (+/−compound) is incubated at room temperature for 30 minutes. 8 μL of solution containing 2 nM Tb-anti-p4E-BP1 antibody & 10 mM EDTA diluted TR-FRET buffer is then added and incubated for 30 minutes to stop the reaction. The plate is scanned with the Envision plate reader. Ki values are calculated in Assay Explorer using the Morrison ATP-competitive tight binding equation for Ki apparent determination.

Experiment [2] relates to PC3 cells. As to the kind of experiment: In vitro cell proliferation assay. It counts as cell-based. Particulars: Homo sapiens, PC-3; with PC3 cells. The method, then:
Efficacy of Formula I compounds were measured by a cell proliferation assay employing the following protocol:
1. An aliquot of 20 μl of cell culture containing about 10^3 cells (PC3 or MDAMB361.1) in medium was deposited in each well of a 384-well, opaque-walled plate.
2. Control wells were prepared containing medium and without cells; Cells were allowed to settle overnight.
3. The compound was added to the experimental wells and incubated for 3 days.
4. The plates were equilibrated to room temperature for approximately 30 minutes.
5. A volume of CellTiter-Glo Reagent equal to the volume of cell culture medium present in each well was added.
6. The contents were mixed for 2 minutes on an orbital shaker to induce cell lysis.
7. The plate was incubated at room temperature for 20 minutes to stabilize the luminescence signal.
8. Luminescence was recorded and reported in graphs as RLU=relative luminescence units.
Alternatively, cells were seeded at optimal density in a 96 well plate and incubated for 4 days in the presence of test compound. Alamar Blue™ was subsequently added to the assay medium, and cells were incubated for 6 h before reading at 544 nm excitation, 590 nm emission. IC50 values were calculated using a sigmoidal dose response curve fit.

The test system of experiment [3] is AKT serine-473 phosphorylation in PC-3 cells. As to the kind of experiment: In vitro phospho-AKT serine 473 cellular assay. Type of experiment: cell-based. Particulars: Homo sapiens, 0.5 h; PC-3 cells stimulated with EGF, 30 minutes compound incubation; read-out: EC50 activity level (50% decrease of S473 AKT phosphorylation). The protocol:
The assay measures a test compound's inhibition of AKT serine-473 phosphorylation in human prostate adenocarcinoma derived PC-3 (ATCC CRL-1435) cells that have been stimulated with epidermal growth factor (EGF).
The PC-3 cell line is maintained in RPMI1640 media supplemented with 10% FBS, 2 mM Glutamine, and 10 mM HEPES pH 7.4 at 37° C. in a 5% CO2 humidified incubator.
Cells are seeded in 384-well plates at 7,000 cells/well in 50 μl growth media. After 24 hours, growth media is removed and replaced with RPMI1640 containing no FBS. Cells are treated with 10 concentrations of test compounds or DMSO alone for controls (final DMSO concentration 0.5%) and incubated at 37° C. for 30 minutes. Cells are then stimulated for 10 minutes with 100 ng/ml EGF (final concentration). One column of controls is not stimulated with EGF to observe the signal ratio between stimulated and non-stimulated cells. After 10 minutes, compounds and stimulation media are removed and replaced with 25 μl lysis buffer containing protease inhibitors and phosphatase inhibitors. This buffer contains detergent to bring about cellular disruption. […] Following the transfer of lysate to the MSD plate, AKT in the lysate is captured on the coated antibody by incubation on a shaker at 4° C. for 16 hours. Following the capture step the plate is washed and then incubated for two hours with an antibody to S473 phosphorylated AKT which is conjugated with a Sulfo-Tag. This tag gives a signal when in proximity to the electrode on the base of the MSD plate. Binding the tagged antibody to the captured protein allow detection on a MSD reader.
The EC50 is defined as the concentration at which a given compound achieves 50% decrease of the measured levels of S473 AKT phosphorylation. EC50 values are calculated using MDL Assay Explorer 3.0.1.8 fitting a sigmoidal curve with a variable slope.

Sequence of mTOR enzyme (mTOR(1360-2549)+GBL) (P42345 1360-2549): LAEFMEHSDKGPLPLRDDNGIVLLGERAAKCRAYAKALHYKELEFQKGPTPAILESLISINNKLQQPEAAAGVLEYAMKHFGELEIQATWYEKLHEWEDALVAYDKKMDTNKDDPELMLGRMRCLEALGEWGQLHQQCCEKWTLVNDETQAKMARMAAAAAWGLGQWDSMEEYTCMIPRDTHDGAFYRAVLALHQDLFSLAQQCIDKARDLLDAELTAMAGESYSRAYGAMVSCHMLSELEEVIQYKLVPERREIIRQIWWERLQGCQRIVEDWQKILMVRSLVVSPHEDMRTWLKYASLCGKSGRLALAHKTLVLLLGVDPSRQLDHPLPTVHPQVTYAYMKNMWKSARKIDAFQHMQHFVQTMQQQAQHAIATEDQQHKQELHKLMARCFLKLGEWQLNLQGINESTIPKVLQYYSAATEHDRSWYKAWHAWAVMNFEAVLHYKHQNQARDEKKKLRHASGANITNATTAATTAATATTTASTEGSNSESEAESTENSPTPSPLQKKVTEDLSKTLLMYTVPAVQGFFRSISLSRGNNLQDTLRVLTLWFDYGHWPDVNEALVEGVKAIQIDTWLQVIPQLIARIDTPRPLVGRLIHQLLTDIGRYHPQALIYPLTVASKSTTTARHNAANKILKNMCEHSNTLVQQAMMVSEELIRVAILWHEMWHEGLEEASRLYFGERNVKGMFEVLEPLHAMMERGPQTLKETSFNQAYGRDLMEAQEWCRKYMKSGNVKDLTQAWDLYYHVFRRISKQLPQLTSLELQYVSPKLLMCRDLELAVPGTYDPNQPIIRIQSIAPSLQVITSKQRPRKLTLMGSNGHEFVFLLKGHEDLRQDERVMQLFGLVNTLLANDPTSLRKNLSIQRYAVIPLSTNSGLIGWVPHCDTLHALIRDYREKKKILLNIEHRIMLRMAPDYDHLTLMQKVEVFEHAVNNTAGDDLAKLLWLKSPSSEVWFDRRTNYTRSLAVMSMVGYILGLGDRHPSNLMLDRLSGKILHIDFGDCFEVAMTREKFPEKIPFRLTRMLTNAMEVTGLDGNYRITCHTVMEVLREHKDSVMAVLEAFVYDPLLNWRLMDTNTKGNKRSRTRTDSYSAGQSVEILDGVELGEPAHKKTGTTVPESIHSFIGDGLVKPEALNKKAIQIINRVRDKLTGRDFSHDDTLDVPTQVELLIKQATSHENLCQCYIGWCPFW
Sequence of mTOR enzyme (mTOR(1360-2549)+GBL) (Q9BVC4 whole entry partner): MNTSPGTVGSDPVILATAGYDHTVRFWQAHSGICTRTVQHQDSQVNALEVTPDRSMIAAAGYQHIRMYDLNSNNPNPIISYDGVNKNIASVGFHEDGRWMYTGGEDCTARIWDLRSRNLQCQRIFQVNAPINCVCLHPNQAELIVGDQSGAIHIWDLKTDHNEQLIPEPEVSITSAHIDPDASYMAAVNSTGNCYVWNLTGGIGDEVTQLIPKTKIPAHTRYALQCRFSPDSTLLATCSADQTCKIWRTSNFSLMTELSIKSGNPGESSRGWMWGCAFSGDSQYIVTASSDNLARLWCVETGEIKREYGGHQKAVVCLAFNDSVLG

As to `CCNC(=O)Nc1ccc(-c2nc(N3CCOC[C@@H]3C)c3nc(-c4cncnc4)n(CC)c3n2)cc1` [Compound 107, (S)-1-ethyl-3-(4-(9-ethyl-6-(3-methylmorpholino)-8-(pyrimidin-5-yl)-9H-purin-2-yl)phenyl)urea], in experiment [1], the Ki stood at 3 nM. The molecule also displayed an IC50 in experiment [2] of 112 nM. In experiment [3], the EC50 worked out at 7 nM.

Regarding `CCNC(=O)Nc1ccc(-c2nc(N3CCOC[C@@H]3C)c3nc(C4(O)CCOCC4)n(CC)c3n2)cc1` [Compound 104, (S)-1-ethyl-3-(4-(9-ethyl-8-(4-hydroxytetrahydro-2H-pyran-4-yl)-6-(3-methylmorpholino)-9H-purin-2-yl)phenyl)urea], in experiment [1], the Ki is 4 nM. Besides, in experiment [2], the IC50 was 115 nM. Besides, the concentration for a half-maximal effect (EC50) in experiment [3] was determined as 10 nM.

For the molecule `CCNC(=O)Nc1ccc(-c2nc(N3CCOC[C@@H]3C)c3nc(C4(O)COC4)n(C)c3n2)cc1` [Compound 101, (S)-1-ethyl-3-(4-(8-(3-hydroxyoxetan-3-yl)-9-methyl-6-(3-methylmorpholino)-9H-purin-2-yl)phenyl)urea], the Ki in experiment [1] turned out to be 7 nM. Besides, in experiment [2], 282 nM corresponded to half-maximal inhibition (IC50). In addition, the EC50 in experiment [3] was 30 nM.

On to `CCNC(=O)Nc1ccc(-c2nc(N3CCOC[C@@H]3C)c3nc(C4(F)COC4)n(CC)c3n2)cc1` [Compound 109, (S)-1-ethyl-3-(4-(8-(3-fluorooxetan-3-yl)-9-ethyl-6-(3-methylmorpholino)-9H-purin-2-yl)phenyl)urea], for which, in experiment [1], the Ki came to 3 nM. Also, the midpoint of inhibition in experiment [2], the IC50, lay at 218 nM. Besides, in experiment [3], the EC50 is 8 nM.

Take `CCn1c(C2CC2)nc2c(N3CCOC[C@@H]3C)nc(-c3ccc(NC(=O)NC4COC4)cc3)nc21` [Compound 113, (S)-1-(4-(8-cyclopropyl-9-ethyl-6-(3-methylmorpholino)-9H-purin-2-yl)phenyl)-3-(oxetan-3-yl)urea]: in experiment [1], the Ki worked out at 8 nM. Half-maximal inhibition in experiment [2] (IC50) was put at 1700 nM. Moreover, the EC50 in experiment [3] is 8 nM.

On to `CCn1c(C2CC2)nc2c(N3CCOC[C@@H]3C)nc(-c3ccc(Nc4cccc(=O)[nH]4)cc3)nc21` [Compound 112, (S)-6-(4-(8-cyclopropyl-9-ethyl-6-(3-methylmorpholino)-9H-purin-2-yl)phenylamino)pyridin-2(1H)-one], for which, in experiment [1], the Ki was 6 nM. This molecule gave a 50% inhibitory concentration (IC50) in experiment [2] of 853 nM. In addition, the EC50 in experiment [3] came out at 6 nM.

For `CCNC(=O)Nc1ccc(-c2nc(N3CCOC[C@@H]3C)c3nc(C4(O)CNC4)n(C)c3n2)cc1` [Compound 105, (S)-1-ethyl-3-(4-(8-(3-hydroxyazetidin-3-yl)-9-methyl-6-(3-methylmorpholino)-9H-purin-2-yl)phenyl)urea], the Ki in experiment [1] stood at 74 nM.

On to `CCNC(=O)Nc1ccc(-c2nc(N3CCOC[C@@H]3C)c3nc(C4CC4)n(CC)c3n2)cc1` [Compound 106, (S)-1-(4-(8-cyclopropyl-9-ethyl-6-(3-methylmorpholino)-9H-purin-2-yl)phenyl)-3-ethylurea], for which the Ki in experiment [1] was determined as 8 nM. Moreover, the midpoint of inhibition in experiment [2], the IC50, lay at 441 nM. For the same molecule, the concentration giving a half-maximal response (EC50) in experiment [3] was found to be 15 nM.

For the molecule `CCNC(=O)Nc1ccc(-c2nc(N3CCOC[C@@H]3C)c3nc(C4(O)CCOCC4)n(C)c3n2)cc1` [Compound 103, (S)-1-ethyl-3-(4-(8-(4-hydroxytetrahydro-2H-pyran-4-yl)-9-methyl-6-(3-methylmorpholino)-9H-purin-2-yl)phenyl)urea], in experiment [1], the Ki amounted to 5 nM. The molecule further showed an IC50 in experiment [2] of 120 nM. Further, in experiment [3], the EC50 was determined as 29 nM.

As for `CCNC(=O)Nc1ccc(-c2nc(N3CCOC[C@@H]3C)c3nc(C4(F)COC4)n(C)c3n2)cc1` [Compound 108, (S)-1-ethyl-3-(4-(8-(3-fluorooxetan-3-yl)-9-methyl-6-(3-methylmorpholino)-9H-purin-2-yl)phenyl)urea], in experiment [1], the Ki was 3 nM. In experiment [2], this molecule displayed an IC50 of 232 nM. Besides, the EC50 in experiment [3] turned out to be 9 nM.

`CCNC(=O)Nc1ccc(-c2nc(N3CCOC[C@@H]3C)c3nc(C4(O)COC4)n(CC)c3n2)cc1` [Compound 111, (S)-1-ethyl-3-(4-(9-ethyl-8-(3-hydroxyoxetan-3-yl)-6-(3-methylmorpholino)-9H-purin-2-yl)phenyl)urea]: the Ki in experiment [1] stood at 4 nM. In experiment [2], this molecule returned a half-inhibitory concentration (IC50) of 269 nM. The EC50 in experiment [3] turned out to be 4 nM.

With `CCNC(=O)Nc1ccc(-c2nc(N3CCOC[C@@H]3C)c3nc(C4(F)CCOCC4)n(CC)c3n2)cc1` [Compound 110, (S)-1-ethyl-3-(4-(9-ethyl-8-(4-fluorotetrahydro-2H-pyran-4-yl)-6-(3-methylmorpholino)-9H-purin-2-yl)phenyl)urea], the Ki in experiment [1] was determined as 5 nM. In addition, in experiment [2], half-maximal inhibition (IC50) was put at 163 nM. The EC50 in experiment [3] turned out to be 5 nM.

In the case of `CCNC(=O)Nc1ccc(-c2nc(N3CCOC[C@@H]3C)c3nc(C4CC4)n(C)c3n2)cc1` [Compound 102, (S)-1-(4-(8-cyclopropyl-9-methyl-6-(3-methylmorpholino)-9H-purin-2-yl)phenyl)-3-ethylurea], in experiment [1], the Ki turned out to be 8 nM. In experiment [2], this molecule displayed a half-maximal inhibitory concentration (IC50) of 207 nM. Besides, the EC50 in experiment [3] was found to be 37 nM.
